# Results published in patent publication US10294202B2, “Pyrrolidinones as herbicides” (FMC Corporation, priority 2013, dated 2019).
# Tests used:
# [1] = tested on: ryegrass, Italian; assay: Test A pre-/postemergence herbicide test; type: in vivo, Lolium multiflorum; conditions: for Plant response rating, Ryegrass, Italian: 125 g ai/ha; for Ryegrass, Italian plant response rating: 500 g ai/ha
# In short: (§1)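 Directed soil spray to seeded pots (preemergence) or spray onto one- to two-leaf seedlings 2–10 cm tall (postemergence); loam/sand substrate throughout. Evaluated visually after about 10 days against untreated plants, 0 = no effect, 100 = complete control.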
# [2] = tested on: giant foxtail; assay: Test A pre-/postemergence herbicide test; type: in vivo, Setaria faberii
# In short: as §1
# [3] = tested on: ducksalad; assay: Test B flooded paddy test; type: in vivo, Heteranthera limosa; conditions: 500 g ai/ha, Flood; scale of 0 to 100 where 0 is no effect and 100 is complete control
# In short: (§2)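 Plants grown to 2-leaf stage; pots flooded 3 cm above soil and compound applied directly into paddy water, depth held throughout. Visual rating against untreated controls after 13 to 15 days in greenhouse, 0 (no effect) to 100 (complete control).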
# [4] = tested on: ragweed; assay: Test A pre-/postemergence herbicide test; type: in vivo, Ambrosia elatior; conditions: for Plant response rating, Ragweed: 125 g ai/ha; for Ragweed plant response rating: 500 g ai/ha
# In short: as §1
# [5] = tested on: wheat; assay: Test A pre-/postemergence herbicide test; type: in vivo, Triticum aestivum; conditions: Postemergence, 125 g ai/ha; visual rating on 0 to 100 scale (0 no effect, 100 complete control), approx. 10 days
# In short: as §1
# [6] = tested on: rice; assay: Test B flooded paddy test; type: in vivo, Oryza sativa; conditions: 500 g ai/ha, Flood; scale of 0 to 100 where 0 is no effect and 100 is complete control
# In short: as §2
# [7] = tested on: blackgrass; assay: Test A postemergence herbicide test; type: in vivo, Alopecurus myosuroides
# In short: (§3)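 Plants at the one- to two-leaf stage, 2–10 cm tall, grown in loam/sand pots, received postemergence sprays of the test chemicals. After about 10 days in the greenhouse, injury was scored visually against untreated controls on a 0–100 scale (0 none, 100 complete control).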
# [8] = tested on: sedge, umbrella; assay: Test B flooded paddy test; type: in vivo, Cyperus difformis; conditions: 500 g ai/ha, Flood; scale of 0 to 100 where 0 is no effect and 100 is complete control
# In short: as §2
# [9] = tested on: kochia; assay: Test A pre-/postemergence herbicide test; type: in vivo, Kochia scoparia; conditions: for Plant response rating, Kochia: 125 g ai/ha; for Kochia plant response rating: 500 g ai/ha
# In short: as §1
# [10] = tested on: galium; assay: Test A postemergence herbicide test; type: in vivo, Galium aparine; conditions: 125 g ai/ha, visual rating on 0 to 100 scale (0 no effect, 100 complete control), approx. 10 days
# In short: as §3
# [11] = tested on: barnyardgrass; assay: Test A pre-/postemergence herbicide test; type: in vivo, Echinochloa crus-galli
# In short: as §1
# [12] = tested on: corn; assay: Test A pre-/postemergence herbicide test; type: in vivo, Zea mays; conditions: Postemergence
# In short: as §1
# [13] = tested on: barnyardgrass; assay: Test B flooded paddy test; type: in vivo, Echinochloa crus-galli; conditions: 500 g ai/ha, Flood; scale of 0 to 100 where 0 is no effect and 100 is complete control
# In short: as §2
# [14] = tested on: pigweed; assay: Test A pre-/postemergence herbicide test; type: in vivo, Amaranthus retroflexus; conditions: for Plant response rating, Pigweed: 125 g ai/ha; for Pigweed plant response rating: 500 g ai/ha
# In short: as §1
# [15] = Postemergence, visual rating on 0 to 100 scale (0 no effect, 100 complete control), approx. 10 days
# [16] = Preemergence, 0 to 100 scale where 0 is no effect and 100 is complete control
# [17] = Preemergence, visual rating on 0 to 100 scale (0 no effect, 100 complete control)
# [18] = Postemergence, 125 g ai/ha, visual rating on 0 to 100 scale (0 no effect, 100 complete control), approx. 10 days
# [19] = Postemergence, 500 g ai/ha, 0 to 100 scale (0 no effect, 100 complete control)
# [20] = Preemergence, 125 g ai/ha, 0 to 100 scale where 0 is no effect and 100 is complete control
# [21] = Preemergence, 500 g ai/ha, visual rating on 0 to 100 scale (0 no effect, 100 complete control)
# [22] = 125 g ai/ha, visual rating on 0 to 100 scale (0 no effect, 100 complete control), approx. 10 days
# [23] = 500 g ai/ha, 0 to 100 scale (0 no effect, 100 complete control)
SMILES,"Plant response rating, Ryegrass, Italian [1, 15]","Plant response rating, Ryegrass, Italian [1, 16]","Ryegrass, Italian plant response rating [1, 17]","Plant response rating, Foxtail, Giant [2, 18]","Plant response rating, Foxtail, Giant [2, 19]","Plant response rating, Foxtail, Giant [2, 20]","Foxtail, Giant plant response rating [2, 21]","Plant response rating, Ducksalad [3]","Plant response rating, Ragweed [4, 15]","Ragweed plant response rating [4, 17]","Plant response rating, Wheat [5]","Plant response rating, Rice [6]","Plant response rating, Blackgrass [7, 22]","Plant response rating, Blackgrass [7, 23]","Plant response rating, Sedge, Umbrella [8]","Plant response rating, Kochia [9, 15]","Plant response rating, Kochia [9, 16]","Kochia plant response rating [9, 17]","Plant response rating, Galium [10]","Plant response rating, Barnyardgrass [11, 18]",further results
O=C1NCC(c2cccc(-n3cccn3)c2)C1C(=O)Nc1cccc(F)c1F (centres unmarked) [Compound 337],0,0,0,0,40,0,30,0,0,0,0,0,0,0,0,0,0,0,0,0,"Plant response rating, Ragweed [4, 16]: 0; Plant response rating, Barnyardgrass [11, 19]: 50; Plant response rating, Barnyardgrass [11, 20]: 0; Barnyardgrass plant response rating [11, 21]: 20; Plant response rating, Corn [12, 22]: 0; Plant response rating, Corn [12, 23]: 0; Plant response rating, Barnyardgrass [13]: 0; Plant response rating, Pigweed [14, 15]: 0; Plant response rating, Pigweed [14, 16]: 0; Pigweed plant response rating [14, 17]: 0"
O=C1NCC(c2ccc(Br)c(Br)c2)C1C(=O)Nc1cccc(F)c1F (centres unmarked) [Compound 341],0,0,0,50,70,80,90,0,0,0,0,0,0,0,0,0,0,0,0,30,"Plant response rating, Ragweed [4, 16]: 0; Plant response rating, Barnyardgrass [11, 19]: 50; Plant response rating, Barnyardgrass [11, 20]: 50; Barnyardgrass plant response rating [11, 21]: 80; Plant response rating, Corn [12, 22]: 0; Plant response rating, Corn [12, 23]: 30; Plant response rating, Barnyardgrass [13]: 0; Plant response rating, Pigweed [14, 15]: 0; Plant response rating, Pigweed [14, 16]: 0; Pigweed plant response rating [14, 17]: 0"
O=C1NCC(c2ccc(OC(F)F)cc2)C1C(=O)Nc1ccccc1C(F)(F)F (centres unmarked) [Compound 348],0,0,0,70,90,90,90,100,0,30,0,0,20,30,0,20,0,70,0,20,"Plant response rating, Barnyardgrass [11, 19]: 50; Plant response rating, Barnyardgrass [11, 20]: 30; Barnyardgrass plant response rating [11, 21]: 60; Plant response rating, Corn [12, 22]: 0; Plant response rating, Corn [12, 23]: 0; Plant response rating, Barnyardgrass [13]: 40; Plant response rating, Pigweed [14, 15]: 0; Plant response rating, Pigweed [14, 16]: 20; Pigweed plant response rating [14, 17]: 50"
O=C1NCC(c2ccc(OC(F)F)cc2)C1C(=O)Nc1ccccc1F (centres unmarked) [Compound 349],0,0,0,60,90,80,90,90,0,40,0,0,20,40,0,40,50,80,20,80,"Plant response rating, Ragweed [4, 16]: 0; Plant response rating, Barnyardgrass [11, 19]: 90; Plant response rating, Barnyardgrass [11, 20]: 70; Barnyardgrass plant response rating [11, 21]: 90; Plant response rating, Corn [12, 22]: 0; Plant response rating, Corn [12, 23]: 20; Plant response rating, Barnyardgrass [13]: 40; Plant response rating, Pigweed [14, 15]: 0; Plant response rating, Pigweed [14, 16]: 0; Pigweed plant response rating [14, 17]: 40"
